# From patent US20250388571A1, “AMP-ACTIVATED PROTEIN KINASE MODULATOR COMPOUNDS AND USES THEREOF” (Biolexis Therapeutics, Inc., priority 2024, published 2025)
# Entries after “also recorded” stand apart in the source; their conditions may differ.
# Tests used:
# [1] = test system: HepG2 cells; experiment: CyQUANT Cytotoxicity Assay (G6PD assay), HepG2; conditions: treated 2 hours
# [2] = test system: human skeletal muscle cells (HSKM cells); experiment: Glucose uptake assay, human skeletal muscle cells; assay type: cell-based
# Experimental: FIGS. 1-4 show results for cells treated with differing doses of representative compounds of Structure (I) (i.e., compound I-11 in FIG. 1 and compound I-7 in FIG. 2) as well reference compounds (i.e., PF-06409577 in FIG. 3 and MK-8722 in FIG. 4). […] Cells were starved for 3 hours in high glucose DMEM without FBS, then treated with indicated compounds in DMEM without FBS/glucose for 1 hour, and glucose uptake was detected using an uptake glucose kit (Promega). The bars show (from left to right) concentrations of 100 μM, 33 μM, 11 μM, 3.7 μM, 1.23 μM, 0.41 μM, 0.14 μM, 0.045 μM, 0.015 μM, 0.005 μM, 0 μM, and insulin.
# Human skeletal myoblasts were obtained (Thermofisher; BYU) and cultured in DMEM/F12 medium with 10% FBS. For differentiation, 2% horse serum low glucose DMEM medium was employed for 72 hours. Human cardiomyocytes cells (HCM cells; Promocell) were cultured in myocyte growth medium (Promocell). Human preadipocyte HWP-c cells (Promocell) were obtained from upper arm of diabetic II donor. Human preadipocyte HWP-c cells (Promocell) were obtained from abdomen of diabetic II donor. For differentiating human preadipocytes, cells were cultured in preadipocyte growth medium to total confluency stage. The growth medium was replaced with preadipocyte differentiation medium for 72 hours, then changed to PromoCell adipocyte nutrition medium to complete the differentiation process. THLE-2 cells were cultured in BEGM from Lonza/Clonetics Corporation, Walkersville, MD 21793 (BEGM Bullet Kit; CC3170). HepG2, L6 and C2Cl2 cells were cultured in EMEM medium.
# After differentiation myoblasts, preadipocyte cells were starved by removing the medium and adding 100 μL DMEM without serum. The medium was then replaced with 100 μL DMEM±1 μM insulin at indicated concentration of representative compounds without serum or glucose. The cells were then incubated for 1 hour at 37° C. in 5% CO2. The cells were then removed from the medium and 50 μL of 0.1 mM 2DG in PBS was added. Cells were incubated for 30 minutes at 25° C. 25 μL of Stop Buffer was added and samples were mixed. 25 μL of Neutralization Buffer was then added and mixed. 100 μL of 2DG6P Detection Reagent was then added and mixed. Samples were then incubated for 1 hour at 25° C. Luminescence was then recorded with 0.3-1 second integration on a luminometer.
# [3] = test system: HSKM cells; experiment: CyQUANT Cytotoxicity Assay (G6PD assay), HSKM; conditions: treated 2 hours
# Experimental: The CyQUANT Cytotoxicity Assay (Thermofisher, cat no: V23111) was used to detect damaged and dying cells by means of their release of glucose 6-phosphate dehydrogenase into the surrounding medium. Cells were plated in a 96-well microplate (500-25,000 cells/well in a 50-μL volume). Three sets of triplicate wells were reserved for the following controls: a no-cell control (medium alone), untreated cells, and completely lysed cells. Cells were starved for 2 h and then add the indicated AMPK activators (50 μL) to the experimental wells and incubate for 2 hours, 50 μL of 2× reaction mixture was added to each well. 1 μL of 100× Cell-Lysis buffer was added to the completely lysed control wells only. Cells were incubated at 37° C. for 10-30 minutes. Fluorescence was measured (excitation 530-560 nm, emission 580-600 nm) at 5-minute intervals to determine the optimal time point for the experiment.
# To text toxicity, after differentiation of human skeletal muscle cells, HSKM were starved with DMEM medium without FBS/glucose for 2 hours. […] The resultant reaction mixture was then assayed for glucose 6-phosphate dehydrogenase release. An untreated control sample and completely lysed cells were detected for comparison. The fluorescence was measured in a microplate reader (excitation/emission ˜530/590 nm).
# [4] = in vivo; assay type: in vivo; conditions: dog
# Experimental: A total of 3 animals were segregated in to one group and each animal received oral dose followed by intravenous infusion (15 minutes) as a cross over design with 7 days of no dose interval between periods. […] Similarly, in period 2 after 7 days of no dose interval, animals were received intravenous infusion for 15 min at a dose of 1 mg/kg via saphenous vein at a dose volume of 1 mL/kg, each dog was observed after administration of the test item for presence or absence of clinical signs.
# A total of 11 time points for oral and 12 blood samples for IV per each animal were collected, approximately 1 mL were collected from each dog in pre-labeled Eppendorf tubes containing 20 μL/mL of 200 mM K2 EDTA. Blood was withdrawn at scheduled time points via cephalic vein in pre-labelled Eppendorf tubes. The pre-dose blood sample was collected before to drug administration. Post dose samples were collected within stipulated time. The blood samples were kept on crushed ice to maintain the temperature until centrifugation. Plasma was separated and stored under −70° C. […] The PK parameters were evaluated using Phoenix WinNonlin® Ent-Version 8.3 by non-compartmental analysis.
# [5] = PK oral bioavailability experiment, mouse; assay type: in vivo, male Swiss Albino Mouse; conditions: 1 mg/kg intravenous, 5 mg/kg oral
# Experimental: A total of 24 male Swiss albino mouse were allotted for the study, Animals were allotted to 2 groups containing 12 mice/group, on day of dosing all the animals were fasted 3 hours before dosing. The test formulation was administered as a single dose by intravenous and oral route via tail vein and oral gavage needle at a dose of 1 and 5 mg/kg with a dose volume of 5 and 10 mL/kg, respectively.
# Approximately 0.1 mL of blood sample from each animal was collected via retro orbital at predetermined time points (3 animals/Timepoint) in pre-labeled Eppendorf tubes containing anticoagulant. After blood collection at 0.5 h and 1 h, after collection of CSF, whole blood was withdrawn, and brain tissue was collected as a terminal sampling. Blood samples were centrifuged at 10000 rpm for 5 min under refrigeration (2-4° C.) within 0.5 h to obtain plasma. The separated plasma samples were collected in pre labeled tubes within 60 min of separation and stored at −20° C. up to 24 h. Post 24 h sample collection, all plasma samples were transferred to deep freezer custodian to store below or at −70° C. until shipment.
# Similarly, CSF and Brain were collected at 0.5 h and 1h time point by scarification. Tissues were blotted and dried and then transferred to 15 mL falcon tubes. Initially all tissue samples were stored at −20±3° C. Later all brain tissue samples were homogenized with PBS at 1:4 ratio and the brain homogenate were transferred to deep freezer (−70±10° C.) and stored.
# The PK parameters were evaluated using Phoenix WinNonlin® Ent-Version 8.3 by non-compartmental analysis.
# [6] = test system: AMPK signal pathway in human liver cells-HepG2; experiment: Western blot assay, HepG2 cells
# Experimental: Samples for immunoblotting studies were prepared for electrophoresis by adding in a final concentration of 1× Laemmli loading buffer (supplemented with 5% 2-mercaptoethanol). Samples were then electrophorized by SDS-PAGE (4-15% or 4-20% Criterion TGX Precast gel, Bio-Rad) at a constant voltage within the range of 140V. Proteins were transferred to a nitrocellulose membrane (Bio-Rad) using the Trans-Blot Turbo transfer system (Bio-Rad). Membranes were blocked with 5% BSA in TBST for a minimum of 1 hour at room temperature before incubating with the following primary antibodies: • Phospho-AMPKα (Thr172) (40H9) Rabbit mAb (CST, cat no: 2535S), • AMPKα Antibody (CST, cat no: 2532S) • Phospho-Raptor (Ser792) Antibody (CST, cat no: 2083S) • Raptor (24C12) Rabbit mAb (CST, cat no: 2280S) • Phospho-Acetyl-CoA Carboxylase (Ser79) Antibody (CST, cat no: 3661S) • Acetyl-CoA Carboxylase Antibody (CST, cat no: 3662S) • AMPKα2 Antibody (CST, cat no: 2757S) • AMPKβ1 antibody (CST, cat no: 12063) • AMPKβ2 Antibody (CST, CST, cat no: 4148S) • AMPKγ3 Antibody (CST, cat no: 2550S).
structure (smiles),measurement,setting,value
"O=c1[nH]c(-c2c[nH]c3cc(F)c(-c4ccc(C5(O)CCC5)cc4)c(F)c23)no1 [Compound I-11, 3-(4,6-difluoro-5-(4-(1-hydroxycyclobutyl)phenyl)-1H-indol-3-yl)-1,2,4-oxadiazol-5(4H)-one]",toxicity compared to reference compounds MK-8722 and PF-06409577 (G6PD release),[1],less toxicity
same,"glucose uptake compared with reference compounds, based on RLU values",[2],much more glucose uptake compared with reference compounds
same,dose dependence of glucose uptake (printed: activation of insulin / AMPK activation),"[2]; 100 μM to 0.005 μM, 1 hour",dose-dependent manner; also recorded: dose dependence
same,glucose uptake,"[2]; starved, treated 1 hour",induced glucose uptake; also recorded: increased glucose uptake
same,toxicity compared to reference compounds MK-8722 and PF-06409577 (G6PD release),[3],less toxicity
same,"systemic exposure, oral administration",[4]; 5 mg/kg oral,low systemic exposure
same,bioavailability,"[4]; male, Beagle, plasma, 5 mg/kg oral compared with intravenous infusion (1 mg/kg)",5.27 ± 2.94%
same,clearance,[5],low clearance
same,elimination,[5],biphasic elimination
same,systemic exposure,[5],moderate systemic exposure
same,p-AMPK/p-ACC and AMPKα2β1β2γ3 activation,[6],dosage-dependent manner
